Results taken from US4006226A, “Anticonvulsant diphenylsilanes” (priority 1976, dated 1977).

How the values were obtained:
maximal electroshock [1] = experiment: Modified maximal electroshock test (100 Hz, 0.1 sec., 150 volt) of hydrolyzable silanes, oral; format: in vivo, male Carworth mice; details: for ED50: Mus musculus, read-out: Maximal Electroshock ED50 (95% C.I.); for ED50 / Maximal Electroshock ED50 (95% C.I.): sesame oil; for anticonvulsant activity (in words): maximal electroshock
Method: (§1) The modified (100 Hz, 0.1 sec., 150 volt) maximal electroshock test was used to determine the anticonvulsant activity of several hydrolyzable silanes. Male Carworth mice were used as the test animal. All of the compounds were administered orally in a sesame oil carrier. […] The effective amount (ED50) for the compounds at three different time intervals after dosing was determined as previously described.

[2] = LD50, single dose in sesame oil, 14 days observation; parameters: species or system male Carworth mice; details: mouse, in vivo, po, dead after 14 days
Method: as §1
The LD50 of certain silanes was determined by administering a single dose of the silane in sesame oil to groups of the male mice.

[3] = tested on: tonic extension of the hind limbs; experiment: Electroshock test (60 Hz A.C., 0.2 second, 50 milliamp), i.p. dosing; format: in vivo, mice (female Swiss Webster)
Method: The electroshock test procedure was used to determine anticonvulsant activity of diphenylsilanediol. Adult female mice (Swiss Webster strain) were utilized as test animals. […] Seizure protection was scored as inhibition of tonic extension. Groups of mice (six/group) were dosed interperitonially with varying amounts of diphenylsilanediol in a 0.5% methylcellulose solution in distilled water. The dosages ranged from 10 to 100 mg./kg. and the electroshock was applied 30 minutes after dosing.
(§2) (ED99) to be 30 minutes after dosing, the half time of the effect to be about four hours, with some measurable anticonvulsant activity being noted up to 10 hours. The toxicity (LD50) of this silane solution (as freshly prepared) in mice, administered i.p., was determined to be 2500 mg./kg.

[4] = Acute toxicity (LD50), i.p.; details: mouse, in vivo, ip, mice, freshly prepared solution
Method: as §2

maximal electroshock [5] = experiment: Modified maximal electroshock (100 Hz, 0.1 second, 150 volts), intravenous dosing; format: in vivo, mice
Method: (§3) Mice were also dosed with a similar solution of diphenylsilanediol but by intravenous administration. The ED50 was determined to be 10 mg./kg. with a 5 minute peak time by a modified maximal electroshock technique in which stimulus was delivered at 100 Hz for 0.1 second at 150 volts.

maximal electroshock [6] = experiment: Modified maximal electroshock, oral dosing via gastric intubation in sesame oil; format: in vivo, mice; details: Mus musculus
Method: as §3
Oral dosing of mice via gastric intubation with the diphenylsilanediol suspended in sesame oil solution was also performed. Maximal electroshock (modified as described above) was again used to determine the amount necessary to provide an effective dose (ED50) at various time intervals after dosing.

[7] = tested on: Pentylenetetrazol-induced clonic seizures; experiment: Pentylenetetrazol-induced seizure test (Swinyard's method); format: in vivo, mice (female Swiss Webster); details: Mus musculus, ip, 0.5 h; i.p., 30 minutes before pentylenetetrazol; absence of clonic seizures
Method: (§4) Diphenylsilanediol was also tested to determine its effectiveness against chemically-induced seizures. Pentylenetetrazol and strychnine were the convulsant compounds used. Pentylenetetrazol testing was performed in accordance with Swinyard's method as described in J. Am. Pharm. Assoc. 38:201, 1949, while styrchnine tests were made by the method of Everett and Richards as described in J. Pharm. Exp. Ther. 81:402, 1944.
(§5) The silane (in 0.5% aqueous methylcellulose) was administered i.p. to groups of 6 mice (female Swiss Webster) at doses of 10, 30, 100 and 300 mg./kg. The silane solution was administered 30 minutes before injection with one of the convulsant drugs. The end point for scoring effectiveness was the absence of clonic seizures during the 30 minute period subsequent to administration of the convulsant -- this same criterion was utilized in conducting the strychnine tests. In both tests, effective amounts (ED50) of the silane were equivalent with the pentylenetetrazol-induced convulsion requiring 58 mg./kg. and the styrchnine tests showing 60 mg./kg. as the ED50.

[8] = tested on: strychnine-induced seizures; experiment: Strychnine-induced seizure test (method of Everett and Richards); format: in vivo, mice (female Swiss Webster); details: Mus musculus, ip, 0.5 h
Method: as §4, §5

[9] = tested on: idiopathic epilepsy, grand mal seizures of the clonic type; experiment: Control of seizures in a dog with idiopathic epilepsy; format: in vivo, dog (German Shepard)
Method: A young adult dog (German Shepard) was diagnosed as having idiopathic epilepsy after having grand mal seizures of the clonic type.
After five days of dosing, the same amount was administered orally in 250 mg. capsules for a period of 10 days.

[10] = after cessation of 10 mg./kg. oral dose twice daily
[11] = after discontinuation of 500 mg. regimen

CCCCS[Si](SCCCC)(c1ccccc1)c1ccccc1 [.phi.2 Si(SC4 H9)2]
ED50 (maximal electroshock [1]; 2 hrs. after dosing): 290 mg/kg
ED50 (maximal electroshock [1]; 4 hrs. after dosing): 65 mg/kg
ED50 (maximal electroshock [1]; 6 hrs. after dosing): 65 mg/kg

CCN(CC)CCO[Si](OCCN(CC)CC)(c1ccccc1)c1ccccc1 [.phi.2 Si[OCH2 CH2 N(C2 H5)2]2]
ED50 (maximal electroshock [1]; 2 hrs. after dosing): 52 mg/kg
ED50 (maximal electroshock [1]; 4 hrs. after dosing): 84 mg/kg
ED50 (maximal electroshock [1]; 6 hrs. after dosing): 168 mg/kg

CO[Si](OC)(c1ccccc1)c1ccccc1 [.phi.2 Si(OCH3)2]
ED50 (maximal electroshock [1]; 2 hrs. after dosing): 39 mg/kg
ED50 (maximal electroshock [1]; 4 hrs. after dosing): 26 mg/kg
ED50 (maximal electroshock [1]; 6 hrs. after dosing): 52 mg/kg
LD50 at 336 h [2]: 1060 mg/kg

CCCO[Si](OCCC)(c1ccccc1)c1ccccc1 [.phi.2 Si(On-C3 H7)2]
ED50 (maximal electroshock [1]; 4 hrs. after dosing): 89 mg/kg
ED50 (maximal electroshock [1]; 6 hrs. after dosing): 32 mg/kg
Maximal Electroshock ED50 (95% C.I.) (maximal electroshock [1]; 2 hrs. after dosing): no protection
LD50 at 336 h [2]: 1000 mg/kg

O[Si](O)(c1ccccc1)c1ccccc1 [diphenylsilanediol]
half time of the effect ([3]; 25 mg./kg. (ED99)): about four
peak time of the anticonvulsant effect ([3]; 25 mg./kg. (ED99)): 30 min
some measurable anticonvulsant activity noted up to ([3]; 25 mg./kg. (ED99)): up to 10 hours
ED99 ([3]; Mus musculus, ip, 0.5 h): 25 mg/kg
ED50 ([3]; Mus musculus, ip, 0.5 h, 0.5% methylcellulose, electroshock 30 minutes after dosing, read-out: effective dose to prevent convulsions in half the animals (ED50)): 20 mg/kg
LD50 [4]: 2500 mg/kg
peak time (maximal electroshock [5]): 5 min
ED50 (maximal electroshock [5]; Mus musculus, 5 min): 10 mg/kg
ED50 (maximal electroshock [6]; 2 hrs. after dosing): 25 mg/kg
ED50 (maximal electroshock [6]; 4 hrs. after dosing): 37 mg/kg
ED50 (maximal electroshock [6]; 6 hrs. after dosing): 60 mg/kg
ED50 [7]: 58 mg/kg
ED50 [8]: 60 mg/kg
control of seizures ([9]; 500 mg. intramuscularly twice per day): effective in controlling seizures
seizures during 15 day period ([9]; 500 mg. twice per day, 5 days intramuscular then 10 days oral (250 mg. capsules)): did not experience seizures
first seizure postdose [9, 10]: 30 h
interval of seizures after cessation [9, 10]: three
first seizure after the last dose [9, 11]: 39 h
interval of seizures after discontinuation [9, 11]: about four
elimination of seizures ([9]; one-half the previous dosage, 10 mg./kg. orally twice daily, 10 days): effective in eliminating seizures

N[Si](N)(c1ccccc1)c1ccccc1 [.phi.2 Si(NH2)2]
ED50 (maximal electroshock [1]; 2 hrs. after dosing): 56 mg/kg
ED50 (maximal electroshock [1]; 4 hrs. after dosing): 68 mg/kg
ED50 (maximal electroshock [1]; 6 hrs. after dosing): 100 mg/kg

CCCCO[Si](OCCCC)(c1ccccc1)c1ccccc1 [.phi.2 Si(On-C4 H9)2, diphenyl-di-n-butoxysilane, reference compound]
ED50 (maximal electroshock [1]; 4 hrs. after dosing): 1000 mg/kg
ED50 (maximal electroshock [1]; 6 hrs. after dosing): 1000 mg/kg
anticonvulsant activity (in words) (maximal electroshock [1]): no observed activity
Maximal Electroshock ED50 (95% C.I.) (maximal electroshock [1]; 2 hrs. after dosing): no protection
LD50 at 336 h [2]: 5300 mg/kg

O[Si](O)(c1ccccc1)c1ccccc1 [.phi.2 Si(ONa)2]
ED50 (maximal electroshock [1]; 2 hrs. after dosing): 37 mg/kg
ED50 (maximal electroshock [1]; 4 hrs. after dosing): 61 mg/kg
ED50 (maximal electroshock [1]; 6 hrs. after dosing): 90 mg/kg

CC(C)O[Si](OC(C)C)(c1ccccc1)c1ccccc1 [.phi.2 Si(Oi-C3 H7)2]
ED50 (maximal electroshock [1]; 4 hrs. after dosing): 99 mg/kg
ED50 (maximal electroshock [1]; 6 hrs. after dosing): 66 mg/kg
Maximal Electroshock ED50 (95% C.I.) (maximal electroshock [1]; 2 hrs. after dosing): no protection
LD50 at 336 h [2]: 990 mg/kg

CCO[SiH](c1ccccc1)c1ccccc1
ED50 (maximal electroshock [1]; 2 hrs. after dosing): 22 mg/kg
ED50 (maximal electroshock [1]; 4 hrs. after dosing): 21 mg/kg
ED50 (maximal electroshock [1]; 6 hrs. after dosing): 46 mg/kg

CN(C)[Si](c1ccccc1)(c1ccccc1)N(C)C [.phi.2 Si[N(CH3)2]2]
ED50 (maximal electroshock [1]; 2 hrs. after dosing): 50 mg/kg
ED50 (maximal electroshock [1]; 4 hrs. after dosing): 50 mg/kg
ED50 (maximal electroshock [1]; 6 hrs. after dosing): 56 mg/kg

CCO[Si](OCC)(c1ccccc1)c1ccccc1 [.phi.2 Si(OC2 H5)2]
ED50 (maximal electroshock [1]; 2 hrs. after dosing): 37 mg/kg
ED50 (maximal electroshock [1]; 4 hrs. after dosing): 50 mg/kg
ED50 (maximal electroshock [1]; 6 hrs. after dosing): 22 mg/kg
LD50 at 336 h [2]: 1720 mg/kg

CN[Si](NC)(c1ccccc1)c1ccccc1
ED50 (maximal electroshock [1]; 2 hrs. after dosing): 68 mg/kg
ED50 (maximal electroshock [1]; 4 hrs. after dosing): 70 mg/kg
ED50 (maximal electroshock [1]; 6 hrs. after dosing): 153 mg/kg

O[Si](O[Si](O)(c1ccccc1)c1ccccc1)(c1ccccc1)c1ccccc1 [reference compound]
ED50 (maximal electroshock [1]; 2 hrs. after dosing): 1000 mg/kg
ED50 (maximal electroshock [1]; 4 hrs. after dosing): 1000 mg/kg
ED50 (maximal electroshock [1]; 6 hrs. after dosing): 1000 mg/kg
anticonvulsant activity (in words) (maximal electroshock [1]): no anticonvulsant activity

c1ccc([SiH2]c2ccccc2)cc1 [.phi.2 SiH2]
ED50 (maximal electroshock [1]; 2 hrs. after dosing): 28 mg/kg
ED50 (maximal electroshock [1]; 4 hrs. after dosing): 25 mg/kg
ED50 (maximal electroshock [1]; 6 hrs. after dosing): 28 mg/kg
LD50 at 336 h [2]: 924 mg/kg

CC(=O)O[Si](OC(C)=O)(c1ccccc1)c1ccccc1
ED50 (maximal electroshock [1]; 2 hrs. after dosing): 43 mg/kg
ED50 (maximal electroshock [1]; 4 hrs. after dosing): 11 mg/kg
ED50 (maximal electroshock [1]; 6 hrs. after dosing): 50 mg/kg
